Like-named read-outs stand apart in the source and are kept apart here.
Tests used:
[1] = tested on: A673 cells; experiment: Cytotoxicity in A673 cells (Cell Titer Glo viability); type: cell-based; conditions: for IC50: Homo sapiens; for Ratio of Biochemical Potency:Cellular Potency: CDK12 IC50 / A673 IC50
Method in brief: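 Cells plated at 1.2×10^5 per well in DMEM+10% FBS, 24 h, then compound series ± MLN4924 (30 nM final) in 0.1% DMSO for 72 h. Viability by Cell Titer Glo luminescence, normalised to vehicle (100%) and 0.1% Triton x-100 (0%); MLN4924 curves normalised to MLN4924-treated controls.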

[2] = molecular target: Cyclin K (Homo sapiens (Human), UniProt O75909); experiment: Western blotting analysis of Cyclin K depletion in cell culture; type: cell-based; conditions: A673 cells, 1 μM test compound, 2 hours, absence and presence of 10 μM MLN4924
Experimental: A673 cells were incubated for 2 hours with of 1 μM compound in presence or in absence of 10 μM of the NAE (NEDD8 activating enzyme) inhibitor MLN4924 (Cell Signalling Technologies). Cells were washed 2× with cold Phosphate Buffered Saline (PBS, Sigma Aldrich), followed by the addition of lysis buffer for 15 minutes on ice before harvesting and centrifugation.
Protein content in the cell lysate was assessed by BCA assay (Thermo Fisher). Samples were then prepared with 4× Laemmlli Buffer (Bio-Rad) and heated to 95° C. for 5 minutes. Each sample was loaded onto a Mini-PROTEAN TGX Stain Free Gel (Bio-Rad) at 50 μg protein/well. SDS-PAGE was performed and then protein was transferred onto a PVDF membrane using a Trans-Blot® Turbo™ Midi PVDF Transfer Pack (Bio-Rad. Membranes were blocked in TBS-T (Invitrogen), 5% (w/v) milk powder (Marvel) overnight at 4° C.
Membranes were incubated with anti-CCNK antibody (rabbit) primary antibody (Abcam) and anti-GAPDH antibody (rabbit) in TBS-T for 2 hours. Membranes were then washed three times with TBS-T, before incubation secondary goat anti-rabbit HRP antibody (Cell Signalling Technologies) followed by 3× washing in TBS-T. Blots were imaged using a Chemidoc imager (Bio-Rad). Cyclin K depletion was measured as the observable drop in band intensity in compound treated samples relative to proteasome-inhibitor treated samples.
Cyclin K degradation was evaluated by Western blotting for cyclin K in A673 cells exposed to 1 μM test compound for 2 hours in the absence and presence of 10 μM MLN4924 (to inhibit proteosome activity).

[3] = tested on: A673 cells; experiment: A673 cytotoxic potency shift in the presence of MLN4924 (cyclin K degrader activity); type: cell-based; conditions: for Cyclin K Degrader Activity (A673 potency shift + MLN4924): 30 nM MLN4924, 72 hours
Experimental: Inhibition of cell viability by test compounds was assessed in A673 cells (ATCC CRL-1598) and the compound mode of action was attributed to a “molecular-glue”/cyclin K-degradation mechanism by probing for a loss of compound potency in the presence of the NEDD8-activating enzyme inhibitor, MLN4924.
Cells were plated in 96-well plates at a density of […] viable cells per well in 200 μL fully supplemented growth medium (DMEM+10% heat inactivated foetal bovine serum) and incubated for 24 hours in standard tissue culture conditions. Compounds, including MLN4924, were solubilised in DMSO and then diluted in fully supplemented growth medium at 2× their final assay concentration such that the final DMSO concentration was 0.1%. Growth medium in the assay plates was replaced with 50 μL of growth medium containing 2×MLN4924 (final assay concentration: 30 nM, where tested) or vehicle only and 50 μL of growth medium containing a 2× compound concentration series or vehicle only such that each compound was at 1× final assay concentration in 100 μL.
Cells were then incubated for 72 hours in standard tissue culture conditions before viability was assessed using 50 μL Cell Titer Glo reagent (Promega) per well and luminescence measured on an EnVision plate reader. Data were normalised to vehicle control (100%) and cells treated with 0.1% Triton x-100 for 1 hour before viability measurement (0%; full cell kill). IC50 values were determined using a semi-logistic curve fit with parameters “top” fixed at 100% and “bottom” at or below 0%. Viability curves generated in the presence of MLN4924 were normalised and fixed to controls treated with MLN4924.

[4] = molecular target: Human CDK7/CycH/MAT1 (Homo sapiens (Human), UniProt P50613); experiment: Radiometric protein kinase assay (33PanQinase Activity Assay), CDK7; type: biochemical; conditions: ATP 3 μM
[5] = molecular target: Human CDK12 wt/CycK (Homo sapiens (Human), UniProt Q9NYV4); experiment: Radiometric protein kinase assay (33PanQinase Activity Assay), CDK12; type: biochemical; conditions: for CDK7/CDK12: ratio of CDK7 IC50 to CDK12 IC50, greater than 1 indicates selectivity for CDK12
Method in brief: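 Radiometric 33P assay: ATP, test compound (in 10% DMSO) and premixed substrate/enzyme incubated 60 min at 30 °C, stopped with 2% H3PO4. 33Pi incorporation counted by scintillation; least-squares curve fit.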

[6] = A673, read-out: Cellular Potency IC50 (nM) (in A673 cells)
[7] = A673 cells, 72 hours, read-out: A673 IC50
[8] = ATP 0.3 μM, read-out: CDK12 IC50
[9] = read-out: CKD12 Biochemical Potency IC50

Sequence of Human CDK7/CycH/MAT1 (P50613 whole entry): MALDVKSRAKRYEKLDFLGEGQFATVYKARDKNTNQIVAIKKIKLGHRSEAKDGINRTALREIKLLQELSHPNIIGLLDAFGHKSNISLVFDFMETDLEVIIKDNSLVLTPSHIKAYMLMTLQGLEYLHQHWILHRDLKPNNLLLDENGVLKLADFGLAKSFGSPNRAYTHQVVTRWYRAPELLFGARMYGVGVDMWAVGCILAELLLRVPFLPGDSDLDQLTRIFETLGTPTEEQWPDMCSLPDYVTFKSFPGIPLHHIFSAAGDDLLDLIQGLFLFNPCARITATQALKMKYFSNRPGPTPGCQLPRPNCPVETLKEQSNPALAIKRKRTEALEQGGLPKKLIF
Sequence of Human CDK7/CycH/MAT1 (P51946 whole entry partner): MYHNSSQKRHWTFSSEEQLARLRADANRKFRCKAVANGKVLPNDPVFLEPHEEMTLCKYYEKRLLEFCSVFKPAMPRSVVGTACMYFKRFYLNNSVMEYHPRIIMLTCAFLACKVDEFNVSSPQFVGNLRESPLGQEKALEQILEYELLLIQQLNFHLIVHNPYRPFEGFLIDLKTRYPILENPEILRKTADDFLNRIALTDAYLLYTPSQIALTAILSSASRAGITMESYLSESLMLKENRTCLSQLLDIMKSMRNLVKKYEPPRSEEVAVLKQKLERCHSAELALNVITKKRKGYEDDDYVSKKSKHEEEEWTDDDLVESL
Sequence of Human CDK7/CycH/MAT1 (P51948 whole entry partner): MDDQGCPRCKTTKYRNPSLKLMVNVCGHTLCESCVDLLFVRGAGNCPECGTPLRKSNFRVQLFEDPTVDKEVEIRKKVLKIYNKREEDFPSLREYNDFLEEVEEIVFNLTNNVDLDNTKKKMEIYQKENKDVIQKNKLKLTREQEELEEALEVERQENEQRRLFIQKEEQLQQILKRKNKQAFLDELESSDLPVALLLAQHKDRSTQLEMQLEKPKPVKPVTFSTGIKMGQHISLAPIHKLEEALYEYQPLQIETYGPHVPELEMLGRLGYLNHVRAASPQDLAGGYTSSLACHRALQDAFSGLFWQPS
Sequence of Human CDK12 wt/CycK (Q9NYV4 whole entry): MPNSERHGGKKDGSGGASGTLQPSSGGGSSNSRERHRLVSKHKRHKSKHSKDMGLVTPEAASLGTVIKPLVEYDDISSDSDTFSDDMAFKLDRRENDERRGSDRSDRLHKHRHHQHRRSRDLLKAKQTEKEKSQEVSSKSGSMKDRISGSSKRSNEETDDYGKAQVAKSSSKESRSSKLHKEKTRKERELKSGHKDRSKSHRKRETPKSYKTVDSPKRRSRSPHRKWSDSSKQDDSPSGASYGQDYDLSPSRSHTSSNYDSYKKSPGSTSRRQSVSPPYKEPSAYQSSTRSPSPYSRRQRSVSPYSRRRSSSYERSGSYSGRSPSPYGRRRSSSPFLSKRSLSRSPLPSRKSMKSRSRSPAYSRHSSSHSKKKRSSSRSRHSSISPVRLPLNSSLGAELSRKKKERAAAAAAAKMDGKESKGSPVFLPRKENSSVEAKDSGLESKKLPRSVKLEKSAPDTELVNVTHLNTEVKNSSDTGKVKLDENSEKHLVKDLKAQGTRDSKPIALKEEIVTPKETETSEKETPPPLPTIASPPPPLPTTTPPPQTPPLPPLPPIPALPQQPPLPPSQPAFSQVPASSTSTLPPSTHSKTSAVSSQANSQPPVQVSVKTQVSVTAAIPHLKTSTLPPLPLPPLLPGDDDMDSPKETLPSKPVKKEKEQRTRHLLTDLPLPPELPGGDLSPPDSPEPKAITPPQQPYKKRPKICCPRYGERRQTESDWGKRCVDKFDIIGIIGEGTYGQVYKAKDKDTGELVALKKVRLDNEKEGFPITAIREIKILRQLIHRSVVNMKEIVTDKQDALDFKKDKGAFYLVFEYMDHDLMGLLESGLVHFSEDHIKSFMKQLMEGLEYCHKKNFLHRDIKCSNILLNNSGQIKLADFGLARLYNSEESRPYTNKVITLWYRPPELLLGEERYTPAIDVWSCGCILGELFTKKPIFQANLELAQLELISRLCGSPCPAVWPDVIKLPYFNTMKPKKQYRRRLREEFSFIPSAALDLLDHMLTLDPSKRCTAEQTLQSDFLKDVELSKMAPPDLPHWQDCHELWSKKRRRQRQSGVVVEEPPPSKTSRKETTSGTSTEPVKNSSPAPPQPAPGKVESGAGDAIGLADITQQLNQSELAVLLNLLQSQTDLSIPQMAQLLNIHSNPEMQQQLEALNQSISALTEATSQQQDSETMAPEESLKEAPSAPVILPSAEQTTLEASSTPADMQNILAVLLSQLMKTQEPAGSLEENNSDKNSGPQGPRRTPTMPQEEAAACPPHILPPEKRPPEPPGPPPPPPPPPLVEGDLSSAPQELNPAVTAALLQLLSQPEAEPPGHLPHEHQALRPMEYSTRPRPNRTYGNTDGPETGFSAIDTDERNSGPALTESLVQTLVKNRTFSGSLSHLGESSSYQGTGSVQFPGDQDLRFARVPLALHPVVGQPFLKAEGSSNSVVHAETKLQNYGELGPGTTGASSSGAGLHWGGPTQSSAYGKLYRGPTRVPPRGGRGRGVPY
Sequence of Human CDK12 wt/CycK (O75909 whole entry partner): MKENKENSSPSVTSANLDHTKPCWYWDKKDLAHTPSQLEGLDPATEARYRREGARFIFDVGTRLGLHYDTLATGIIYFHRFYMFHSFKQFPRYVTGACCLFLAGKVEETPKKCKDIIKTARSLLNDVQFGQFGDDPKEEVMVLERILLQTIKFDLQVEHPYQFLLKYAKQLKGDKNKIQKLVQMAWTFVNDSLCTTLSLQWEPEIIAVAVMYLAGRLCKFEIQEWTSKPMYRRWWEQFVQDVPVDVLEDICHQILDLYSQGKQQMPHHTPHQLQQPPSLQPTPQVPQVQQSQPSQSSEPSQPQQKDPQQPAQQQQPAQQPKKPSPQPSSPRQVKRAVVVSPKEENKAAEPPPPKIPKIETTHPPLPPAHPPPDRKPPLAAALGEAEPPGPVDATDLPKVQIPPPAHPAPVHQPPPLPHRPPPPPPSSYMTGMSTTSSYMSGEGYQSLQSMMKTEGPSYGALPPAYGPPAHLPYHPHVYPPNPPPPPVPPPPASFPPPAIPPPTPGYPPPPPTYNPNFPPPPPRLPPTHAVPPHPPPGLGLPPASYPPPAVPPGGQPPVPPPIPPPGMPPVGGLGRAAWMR

IC50 [4] [nM]	IC50 [5, 8] [nM]	CDK7/CDK12 [5]	IC50 [5, 9] [nM]	Compound	IC50 [1, 6] [nM]	IC50 [1, 7] [nM]	Cyclin K degradation by Western blotting [2]	Change of cytotoxic potency in the presence of MLN4924 ([3]; 72 hours, presence and absence of 30 nM MLN4924)	Ratio of Biochemical Potency:Cellular Potency [1]	Cyclin K Degrader Activity (A673 potency shift + MLN4924) [3]
				CC[C@H](CO)Nc1nc(NCc2ccc(-c3ccccn3)cc2)c2ncn(C(C)C)c2n1 [CR8, reference compound]	84.5	84.5	did cause proteosomal dependent degradation of Cyclin K	a decrease in potency		
235	13	18.1	13	N#Cc1cnn2c(NCc3ccc(-c4ccccn4)cc3)cc(N[C@H]3CCCNC3)nc12 [PPA-092]	0.4	1			32.50	+++ (>5 fold change.)
			160	CN(C)C/C=C/C(=O)Nc1ccc(C(=O)N2CCC[C@@H](Nc3ncc(Cl)c(-c4c[nH]c5ccccc45)n3)C2)cc1 [THZ-531, reference compound]	210		no protesomal dependent Cyclin K degradation		0.74	− (≤1 fold change.)
762	60	12.7	60	C1=C(c2cc(NCc3ccc(-c4ccccn4)cc3)n3ncc(C4CC4)c3n2)CNCC1 [PPA-088]	2.5	2.5			24.00	+++ (>5 fold change.)
311	99	3.1	99	O[C@H]1CNCC[C@@H]1CNc1cc(NCc2ccc(-c3ccccn3)cc2F)n2ncc(C3CC3)c2n1 [PPA-020]	3.3	3.3			30.00	+++ (>5 fold change.)
106	39	2.7	39	O[C@H]1CNCC[C@@H]1CNc1cc(NCc2ccc(-c3nccs3)cc2)n2ncc(C3CC3)c2n1 [PPA-018]	0.9	0.9			43.33	+++ (>5 fold change.)
212	55	3.9	55	O[C@H]1CNCC[C@@H]1CNc1cc(NCc2ccc(-n3cccn3)cc2)n2ncc(C3CC3)c2n1 [PPA-009]	1.3	1.3			42.31	++ (>2 and ≤5 fold change.)
675	23	29.3	23	N#Cc1cnn2c(NCc3ccc(-c4ccccc4)cc3)cc(N[C@H]3CCNC3)nc12 [PPA-085]	1.3	1.3			17.69	++ (>2 and ≤5 fold change.)
1630	503	3.2	503	CO[C@H]1CNCC[C@@H]1CNc1cc(NCc2ccc(-c3ccccn3)cc2)n2ncc(C3CC3)c2n1 [PPA-087]	8.7	8.7			57.82	+++ (>5 fold change.)
417	11	37.9	11	N#Cc1cnn2c(NCc3ccc(-c4ccccn4)cc3)cc(N[C@H]3CCNC3)nc12 [PPA-086]	0.9	0.9			12.22	+++ (>5 fold change.)
250	28	8.9	28	c1ccc(-c2ccc(CNc3cc(N[C@H]4CCNC4)nc4c(C5CC5)cnn34)cc2)nc1 [PPA-037]	0.7	0.7			40.00	+++ (>5 fold change.)
284	29	9.8	29	c1ccc(-c2ccc(CNc3cc(O[C@H]4CCNC4)nc4c(C5CC5)cnn34)cc2)nc1 [PPA-065]	3.2	3.2			9.06	+++ (>5 fold change.)
576	143	4.0	143	CC(C)c1cnn2c(NCc3ccc(-c4ccccc4)cc3)cc(NC[C@H]3CCNC[C@@H]3O)nc12 [PPA-004, (3R,4R)-4-(((7-(([1,1′-biphenyl]-4-ylmethyl)amino)-3-isopropylpyrazolo[1,5-a]pyrimidin-5-yl)amino)methyl)piperidin-3-ol]	6.3	6.3			22.70	+++ (>5 fold change.)
6920	743	9.3	743	c1ccc(-c2ccc(CNc3cc(NCC4CCNCC4)nc4c(C5CC5)cnn34)cc2)nc1 [PPA-040]	20.2	20.2			36.78	+++ (>5 fold change.)
222	31	7.2	31	Clc1cnn2c(NCc3ccc(-c4ccccn4)cc3)cc(N[C@H]3CCCNC3)nc12 [PPA-093]	3.2	1.7			9.69	++ (>2 and ≤5 fold change.)
3070	382	8.0	382	c1cnn(-c2ccc(CNc3cc(N[C@H]4CCNC4)nc4c(C5CC5)cnn34)cc2)c1 [PPA-091]	7.6	10.3			50.26	+++ (>5 fold change.)

Compound	IC50 [4] [nM]	IC50 [5, 8] [nM]	CDK7/CDK12 [5]	IC50 [5, 9] [nM]	IC50 [1, 6] [nM]	IC50 [1, 7] [nM]	Cyclin K degradation by Western blotting [2]	Change of cytotoxic potency in the presence of MLN4924 ([3]; 72 hours, presence and absence of 30 nM MLN4924)	Ratio of Biochemical Potency:Cellular Potency [1]	Cyclin K Degrader Activity (A673 potency shift + MLN4924) [3]
CN(c1cc(NCc2ccc(-c3ccccn3)cc2)n2ncc(C3CC3)c2n1)C1CCNCC1 [PPA-039]	2090	169	12.4	169	2.8	2.8			60.36	+ (>1 and ≤2 fold change.)
c1ccc(-c2ccc(CNc3cc(N4CC5CC(C4)N5)nc4c(C5CC5)cnn34)cc2)nc1 [PPA-080]	1210	152	8.0	152	12.6	12.6			12.06	+++ (>5 fold change.)
